# Measured values: publication PMC7377239, “Cardiovascular Effects of Polychlorinated Biphenyls and Their Major Metabolites” (Environmental Health Perspectives, 2020)
# Where two headings read alike, the source gives them in different places.
# How the values were obtained:
# [1] = tested on: iCell cardiomyocytes (human iPSC-derived cardiomyocytes); assay: High-content imaging of cytotoxicity and mitochondrial integrity in iPSC-CMs; assay type: cell-based; conditions: Homo sapiens, Cardiomyocyte, cardiomyocytes (cm)
# In short: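 Cardiomyocytes grown on gelatinized 384-well plates received fresh medium on the experiment day and were then exposed to chemicals at 0.01–100μM. Nuclei and mitochondria were labeled with Hoechst 33342 and MitoTracker™ Orange, then fixed, and imaged on an ImageXpress® Micro Confocal system. Four-parameter logistic concentration–response fits in R, with a one-standard-deviation vehicle cutoff, gave point-of-departure values.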
# HUVECs = assay: High-content imaging cytotoxicity in HUVECs, 24 h; assay type: cell-based, human; conditions: Homo sapiens, HUVEC, 24 h, HUVEC, 24 hr
# In short: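 Point-of-departure values come from four-parameter logistic fits of vehicle-normalized (0.5% DMSO) imaging readouts, cutoff one SD of vehicle means, 100μM where no concentration–response. Cells: HUVEC monolayers, passages 1–5, treated 24 h at 37°C, 5% CO2, then Hoechst 33342/MitoTracker Orange/calcein AM stained, imaged at 10×.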
structure (smiles),measurement,setting,value
"Clc1ccc(Cl)c(-c2cc(Cl)ccc2Cl)c1 [PCB 52, 2,2′,5,5′-tetrachlorobiphenyl]",minimal effective concentration,"[1]; 1.5 h, cam, 90 min, read-out: POD cm.cam.90min",36 µM
same,minimal effective concentration,"[1]; 1.5 h, mii, 90 min, read-out: POD cm.mii.90min",10.4 µM
same,minimal effective concentration,"[1]; 1.5 h, mito, 90 min, read-out: POD cm.mito.90min",39.2 µM
same,minimal effective concentration,"[1]; 1.5 h, tc, 90 min, read-out: POD cm.tc.90min",38.9 µM
same,minimal effective concentration,"[1]; 24 h, cam, 24 hrs, read-out: POD cm.cam.24hrs",7.5 µM
same,minimal effective concentration,"[1]; 24 h, mii, 24 hrs, read-out: POD cm.mii.24hrs",34.4 µM
same,minimal effective concentration,"[1]; 24 h, mito, 24 hrs, read-out: POD cm.mito.24hrs",7.32 µM
same,minimal effective concentration,"[1]; 24 h, tc, 24 hrs, read-out: POD cm.tc.24hrs",8.11 µM
same,minimal effective concentration,"HUVECs; cyto, read-out: POD huvec.cyto.24hr",0.67 µM
same,minimal effective concentration,"HUVECs; mito, read-out: POD huvec.mito.24hr",0.57 µM
same,minimal effective concentration,"HUVECs; mitoint, read-out: POD huvec.mitoint.24hr",6.01 µM
same,minimal effective concentration,"HUVECs; nma, read-out: POD huvec.nma.24hr",4.97 µM
same,minimal effective concentration,"HUVECs; tc, read-out: POD huvec.tc.24hr",0.67 µM
